Assay results published in patent publication EP0401517A1, “Substituted 2-alkynylphenols with anti-inflammatory action, a process for their preparation and pharmaceutical compositions thereof” (CAMILLO CORVI S.p.A., priority 1989, dated 1990).

Experiments:
cyclo-oxygenase = experiment: In vitro cyclo-oxygenase activity: malondialdehyde production in guinea pig lung homogenate incubated with arachidonic acid and cofactors; assay type: biochemical
Protocol: (§1) These new products are active in vitro as inhibitors of cyclo-oxygenase (malondialdehyde production test in guinea pig lung homogenates) and/or of the 5-lipo-oxygenase (A23187 stimulated rabbit leucocytes test).
The cyclooxygenase activity is determined according to the method of Luzzani et al. (Luzzani, F., et al. INT. J. TISS. REAC. X(2); 79-83, 1988), by monitoring the production of malondialdehyde in a guinea pig lung homogenate incubated in the presence of arachidonic acid and cofactors.
(§2) In Table I below the results of the comparisons of 8 inventive compounds with 3 prior art compounds are shown. In column "CO" the data concerning cyclo-oxygenase, and in column "5-LO" those concerning 5-lipo-oxygenase are shown.

5-lipo-oxygenase = target: T1, 5-lipo-oxygenase (Oryctolagus cuniculus, UniProt G1SNX0); experiment: In vitro 5-lipo-oxygenase activity: formation of leukotriene B4 from [14C] arachidonic acid in calcium ionophore A23187 stimulated rabbit leukocytes (radiometric T.L.C. assay); assay type: cell-based; settings: read-out: 5-LO (% of inhibition at 10 µM)
T1 construct: a preparation of calcium ionophore A23187 stimulated rabbit leukocites; endogenous in cells; host or cells: rabbit leukocytes
T1 sequence (G1SNX0 1-674): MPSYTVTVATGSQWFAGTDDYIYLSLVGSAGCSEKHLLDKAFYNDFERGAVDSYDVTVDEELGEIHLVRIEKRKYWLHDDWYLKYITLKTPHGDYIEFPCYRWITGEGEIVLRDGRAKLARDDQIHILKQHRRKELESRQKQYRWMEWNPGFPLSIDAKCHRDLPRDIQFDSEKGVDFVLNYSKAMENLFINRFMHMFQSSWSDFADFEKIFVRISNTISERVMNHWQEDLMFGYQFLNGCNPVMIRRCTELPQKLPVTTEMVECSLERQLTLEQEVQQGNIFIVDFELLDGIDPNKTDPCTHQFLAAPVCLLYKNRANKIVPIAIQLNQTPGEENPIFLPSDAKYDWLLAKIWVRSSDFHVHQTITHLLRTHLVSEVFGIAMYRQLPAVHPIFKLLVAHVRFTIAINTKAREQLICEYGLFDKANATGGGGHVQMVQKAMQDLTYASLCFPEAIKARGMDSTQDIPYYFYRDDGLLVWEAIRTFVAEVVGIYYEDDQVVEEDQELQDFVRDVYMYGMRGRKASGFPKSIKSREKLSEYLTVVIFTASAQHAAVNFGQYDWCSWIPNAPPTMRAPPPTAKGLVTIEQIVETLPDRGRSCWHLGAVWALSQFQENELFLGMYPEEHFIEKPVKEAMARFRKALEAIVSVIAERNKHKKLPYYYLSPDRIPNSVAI
Protocol: as §1
The formation of leukotriene B₄ from [¹⁴C] arachidonic acid in a preparation of calcium ionophore A23187 stimulated rabbit leukocites is measured by means of a slightly modified radiometric T.L.C.assay based on published procedures (Beetens, J.R. et al. BIOCHEM. PHARMACOL 35 (6); 883, 1986).
as §2

Compound	CO (% of inhibition at 10 µM) (cyclo-oxygenase)	inhibition at 10 µM (5-lipo-oxygenase)
COc1ccc2c(c1)c(CC(=O)O)c(C)n2C(=O)c1ccc(Cl)cc1 [INDOMETHACIN, reference compound]	98%	0%
COc1ccc(O)c(CC#Cc2ccccc2)c1 [CO/1828, 2-(3-Phenyl-2-propynyl)-4-metoxyphenol]	50%	57%
COc1ccc(O)c(C(C)C#Cc2ccccc2)c1 (stereo not drawn) [CO/1863, 2-(4-Phenyl-3-butyne-2-yl)-4-methoxyphenol]	23%	46%
CCCCCCC#CCc1cc(OC)ccc1O [CO/1837, 4-Methoxy-2-(2-nonynyl)phenol]	52%	92%
CC(Cc1ccc(O)c(O)c1)C(C)Cc1ccc(O)c(O)c1 (stereo not drawn) [NORDIHYDROGUAIARETIC ACID, reference compound]	5%	92%
NC1=NN(c2cccc(C(F)(F)F)c2)CC1 [BW 755 c, reference compound]	30%	25%
COc1cccc(CC#Cc2ccccc2)c1O [CO/1826, 2-(3-Phenyl-2-propynyl)-6-methoxyphenol]	66%	52%
Oc1cccc(CC#Cc2ccccc2)c1O [CO:1841, 3-(3-Phenyl-2-propynyl)pyrocatechol]	26%	90%
CC(C#Cc1ccccc1)c1cc(OCc2ccccc2)ccc1O (stereo not drawn) [CP/1864, 4-Benzyloxy-2-(4-phenyl-3-butyne-2-yl)phenol]	0%	68%
